The text below walks through data of patent EP4691462A1, “SILYBIN-CONTAINING COMPOSITION” (Tianjin Tasly Sants Pharmaceutical Co., Ltd., priority 2023, dated 2024).

The first test relates to Col1a1-Luci-reporter luciferase in LX-2 cells. The test can be described thus: HSCs activation model based on Col1a1-Luci-reporter luciferase in transfected LX-2 cells (Duo-Lite luciferase assay; CI by CompuSyn). The settings on record: 10 µM, 20 µM, 50 µM, 12 hours. Type of test: cell-based, human. The procedure: LX-2 cells were inoculated into 96-well plates and cultured to a suitable density. Then, Lipofectamine 3000 liposome transfection reagent was used to prepare transfection system. Each well was transfected with 0.1 µg plasmid, of which the Empty vector group was transfected with pEZX-FR03-hygro empty plasmid, and the Control group and other administration groups were transfected with pEZX-FR03-hygro-COL1A1-WT plasmid.
The LX-2 cell line was transfected with plasmid for 6 hours, and then the drug-containing serum-free medium containing 2.5 mM, 5 mM, and 10 mM anti-fibrosis agent Pirfenidone was replaced according to groups for incubation for 12 hours, and then tested by the Duo-LitTM Luciferase Assay System kit.
The cell culture plate to be tested was taken out into the incubator, and left at room temperature for 30 min to allow the temperature of the culture plate to be balanced to room temperature. Firefly luciferase activity was detected. The original culture medium was discarded, and added with 75 µl PBS, then added with Duo-Lite Luciferase detection reagent with the same volume as PBS, and was mixed evenly. The system was left at room temperature for 10 min to detect firefly luciferase luminescence.
The LX-2 cell line was transfected with plasmid for 6 hours, and then the drug-containing serum-free medium containing 10 µM, 20 µM, 50 µM Silybin was replaced according to groups for incubation for 12 hours, and then tested by the Duo-LitTM Luciferase Assay System kit.
The LX-2 cell line was transfected with plasmid for 6 hours, and then the drug-containing serum-free medium containing 10 µM silybin, 10 µM drug to be screened, 20 µM silybin, 20 µM drug to be screened at a mixed ratio of 1:1 was replaced according to groups for incubation for 12 hours, and then tested by the Duo-LitTM Luciferase Assay System kit.
Cell activation inhibition rate% = (Control Group Firefly- Administration Group Firefly)/ Control Group Firefly ×100%. The CI value was obtained by analysis using micro-use CompuSyn software. […]
Turning to `COc1cc(C2Oc3cc([C@H]4Oc5cc(O)cc(O)c5C(=O)[C@@H]4O)ccc3OC2CO)ccc1O` (stereo partly shown) [silybin], the “inhibitory effect on activation of stellate cells in vitro” value was “no significant inhibitory effect”.

Staying with this test, now noted: 5 mM and 10 mM, 12 hours, clear dose-dependence.
Turning to `Cc1ccc(=O)n(-c2ccccc2)c1` [Pirfenidone], the “expression level of luciferase” value is on record as “significantly decreased”.

Staying with this test, now noted: named drug combined with silybin, mixed ratio 1:1, 12 hours, CI<0.90 synergistic, 0.90<CI<1.10 additive.
With `OC[C@@H](O)[C@@H](O)[C@H](O)[C@H](O)CO` [D-mannitol], the CI stood at 0.66.

With `O=C(O)COC(=O)Cc1ccccc1Nc1c(Cl)cccc1Cl` [aceclofenac], the CI stood at 0.46.

`CCOC(=O)C1=C(COCCN)NC(C)=C(C(=O)OC)C1c1ccccc1Cl` (stereo not shown) [amlodipine]: the CI is 0.62.

In the case of `CCCC1O[C@@H]2C[C@H]3[C@@H]4CCC5=CC(=O)C=C[C@]5(C)[C@H]4[C@@H](O)C[C@]3(C)[C@]2(C(=O)CO)O1` (stereo partly shown) [budesonide], the CI is 0.91.

As to `COc1ccccc1OCCNCC(O)COc1cccc2[nH]c3ccccc3c12` (stereo not shown) [carvedilol], the CI stood at 0.11.

With `COCCOC(=O)C1=C(C)NC(C)=C(C(=O)OC/C=C/c2ccccc2)C1c1cccc([N+](=O)[O-])c1` (stereo not shown) [cilnidipine], the CI is 0.79.

For `CCC(=O)O[C@]1(C(=O)CCl)[C@@H](C)C[C@H]2[C@@H]3CCC4=CC(=O)C=C[C@]4(C)[C@@]3(F)[C@@H](O)C[C@@]21C` [clobetasol propionate], the CI is 0.86.

Turning to `COC(=O)C1=C(C)NC(C)=C(C(=O)OCCN2CCN(C(c3ccccc3)c3ccccc3)CC2)C1c1cccc([N+](=O)[O-])c1` (stereo not shown) [manidipine], the CI is 0.54.

Consider `COC(=O)C1=C(C)NC(C)=C(C(=O)OCCN(C)Cc2ccccc2)C1c1cccc([N+](=O)[O-])c1` (stereo not shown) [nicardipine], for which the CI is recorded as 0.31.

Take `CCOc1ccccc1OCCN[C@H](C)Cc1ccc(OC)c(S(N)(=O)=O)c1` [tamsulosin]: the CI turned out to be 0.50.

As to `CCCCC(=O)N(Cc1ccc(-c2ccccc2-c2nnn[nH]2)cc1)[C@H](C(=O)O)C(C)C` [valsartan], the CI came out at 0.47.
